Test results published in the NIST ThermoML archive (doi:10.1021/je900962v).
Several values for one entry are separate records, joined by “and”; a condition that tells them apart may be missing. Identical values can stand only once.

Key:
[1] = 298.15 K
[2] = xn = mol fraction of the nth substance listed; settings: 298.15 K

CCCCOC(C)=O [butyl ethanoate]
Settings	surface tension liquid-gas [mN/m]
[1]	24.91

CCCCOC(C)=O [butyl ethanoate] + O
[2]
Settings	surface tension liquid-gas [mN/m]
x1 = 7.97e-05	63.74
x1 = 7.99e-05	64.49
x1 = 8.76e-05	63.71
x1 = 8.81e-05	64.3
x1 = 0.000104	62.6
x1 = 0.000124	61.81
x1 = 0.000131	61.47
x1 = 0.000142	61.15
x1 = 0.000173	59.3
x1 = 0.000216	57.5
x1 = 0.000274	55.53
x1 = 0.000343	53.31
x1 = 0.000439	51.12
x1 = 0.000536	49.09
x1 = 0.00067	46.9
x1 = 0.000754	45.57
x1 = 0.00081	44.42
x1 = 0.000933	43.1
x1 = 1	24.91

CCOC(C)=O [ethyl acetate]
Settings	surface tension liquid-gas [mN/m]
[1], Drop volume	23.93

CCOC(C)=O [ethyl acetate] + O
[2], Drop volume
Settings	surface tension liquid-gas [mN/m]
x1 = 0.0011	62.08
x1 = 0.0013	60.95
x1 = 0.0014	60.43
x1 = 0.0017	59.33
x1 = 0.0018	58.8
x1 = 0.0025	56.64
x1 = 0.0033	54.17
x1 = 0.0044	51.16
x1 = 0.0054	48.98
x1 = 0.0061	47.92
x1 = 0.008	44.22
x1 = 0.0089	43.31
x1 = 0.0118	41.37
x1 = 0.0141	38.97
x1 = 1	23.93

COC(C)=O [methyl ethanoate]
Settings	surface tension liquid-gas [mN/m]
[1], Drop volume	24.79

COC(C)=O [methyl ethanoate] + O
[2], Drop volume
Settings	surface tension liquid-gas [mN/m]
x1 = 0.004	61.87
x1 = 0.0047	60.57
x1 = 0.0056	59.67
x1 = 0.0069	57.62
x1 = 0.0093	54.72
x1 = 0.0115	53.25
x1 = 0.0147	49.91
x1 = 0.0183	48.18
x1 = 0.0214	46.68
x1 = 0.0245	44.35
x1 = 0.029	42.63
x1 = 0.0341	40.26
x1 = 0.0433	36.64
x1 = 0.0523	33.49
x1 = 0.0586	31.61
x1 = 0.0702	29.12
x1 = 1	24.79

CCCOC(C)=O [propyl ethanoate]
Settings	surface tension liquid-gas [mN/m]
[1], Drop volume	24.22

CCCOC(C)=O [propyl ethanoate] + O
[2], Drop volume
Settings	surface tension liquid-gas
x1 = 0.00017	65.86 mN/m
x1 = 0.00023	64.54 mN/m
x1 = 0.00031	62.64 mN/m and 63.23 mN/m
x1 = 0.00038	61.64 mN/m
x1 = 0.00041	61.43 mN/m
x1 = 0.00049	60.29 mN/m
x1 = 0.00052	59.4 mN/m
x1 = 0.00057	59.02 mN/m
x1 = 0.00071	57.47 mN/m
x1 = 0.00074	56.94 mN/m
x1 = 0.00083	56.17 mN/m
x1 = 0.00103	54.38 mN/m
x1 = 0.00104	53.7 mN/m
x1 = 0.00114	53.49 mN/m
x1 = 0.00116	53.22 mN/m
x1 = 0.00142	50.93 mN/m and 51.11 mN/m
x1 = 0.00158	49.17 mN/m
x1 = 0.00159	49.3 mN/m
x1 = 0.00208	46.76 mN/m
x1 = 0.00239	45.44 mN/m
x1 = 0.00318	42.65 mN/m
x1 = 0.00355	41.31 mN/m
x1 = 0.00367	40.63 mN/m
x1 = 0.0038	40.55 mN/m
x1 = 1	24.22 mN/m

O [water]
Settings	surface tension liquid-gas [mN/m]
[1], Drop volume	71.57

O [water] + CCCCOC(C)=O
Settings	surface tension liquid-gas [mN/m]
[2], x2 = 0	71.57

O [water] + CCCOC(C)=O
Settings	surface tension liquid-gas [mN/m]
[2], Drop volume, x2 = 0	71.57

O [water] + CCOC(C)=O
Settings	surface tension liquid-gas [mN/m]
[2], Drop volume, x2 = 0	71.57

O [water] + COC(C)=O
Settings	surface tension liquid-gas [mN/m]
[2], Drop volume, x2 = 0	71.57
